Data as given in patent US12297194B2, “N2-phenylpyrimidine-2,4-diamine compounds, and preparation methods and methods of use thereof” (BRIDGE BIOTHERAPEUTICS, INC., priority 2021, dated 2025).

Columns and labels:
Format in all cases: cell-based, murine
[1] = biological target: Ba/F3 EGFR L858R/T790M/C797S mutants (Homo sapiens, UniProt P00533, T790M/C797S/L858R, cells depend on it); assay: CellTiter-Glo cell viability, Ba/F3 EGFR L858R/T790M/C797S cells; conditions: 72 hours, read-out: Ba/F3 EGFR mutant cell (IC50, nM) L/T/C
Experimental: (§1) In order to evaluate an inhibitory ability on wild-type Ba/F3 EGFR and Ba/F3 EGFR mutations in Ba/F3 cell lines by the compounds of Formula 1, the experiment was carried out as described below.
(§2) The measurement of activities on Ba/F3 cells harboring wild-type EGFR and EGFR mutants by the compounds of the present invention were determined utilizing the CELLTITER-GLO™ system from Promega, as follows. The CELLTITER-GLO™ assay is a method for measuring the ATP present in cells to determine the cell viability. Ba/F3 EGFR wild-type and Ba/F3 EGFR L858R/C797S (L/C), Ba/F3 EGFR L858R/T790M/C797S (L/T/C), Ba/F3 EGFR Del19/T790M (D/T), Ba/F3 EGFR Del19/C797S (D/C), Ba/F3 EGFR Del19/T790M/C797S (D/T/C) mutant cell lines were maintained in RPMI1640, containing […], 1% penicillin-streptomycin, […] puromycin. Cells were grown in a humidified incubator at 37° C. with […].
(§3) The analysis of an EGFR inhibitory activity by the compounds was carried out in accordance with the analysis reaction recipe below.
(§4) 2500 cells/90 μL were seeded in 96 well cell culture plate, and after 24 hours, treated with the compounds represented by Formula 1 in concentrations of 0, 0.3, 0.9, 2.7, 8.2, 24.7, 74.1, 222.2, 666.7, 2000 (nM). After the reaction of 72 hours, the plate was incubated for 30 minutes at ambient temperature, and then, was further treated with 100 μL of the CELLTITER-GLO™ reagent and was shaken for 10 minutes at ambient temperature. Finally, measurement of the luminescence values were obtained using the SPECTRAMAX™ iD3 (Molecular Devices), and the IC50 values of the compound were analyzed using the GraphPad Prism program (version 9.0.2, GraphPad Software, Inc.).

[2] = biological target: Ba/F3 EGFR Del19/T790M/C797S mutants (Homo sapiens, UniProt P00533, T790M/C797S, cells depend on it, form not given); assay: CellTiter-Glo cell viability, Ba/F3 EGFR Del19/T790M/C797S cells; conditions: 72 hours, read-out: Ba/F3 EGFR mutant cell (IC50, nM) D/T/C
Experimental: as §1, §2, §3, §4

Ba/F3 EGFR Wild-type = Ba/F3 EGFR Wild-type (Homo sapiens, UniProt P00533); assay: CellTiter-Glo cell viability, Ba/F3 EGFR wild-type cells; conditions: 72 hours, read-out: Ba/F3 EGFR mutant cell (IC50, nM) WT
Experimental: as §1, §2, §3, §4

[3] = biological target: Ba/F3 EGFR L858R/C797S mutants (Homo sapiens, UniProt P00533, C797S/L858R, cells depend on it); assay: CellTiter-Glo cell viability, Ba/F3 EGFR L858R/C797S cells; conditions: 72 hours, read-out: Ba/F3 EGFR mutant cell (IC50, nM) L/C
Experimental: as §1, §2, §3, §4

[4] = biological target: Ba/F3 EGFR Del19/C797S mutants (Homo sapiens, UniProt P00533, C797S, cells depend on it, form not given); assay: CellTiter-Glo cell viability, Ba/F3 EGFR Del19/C797S cells; conditions: 72 hours, read-out: Ba/F3 EGFR mutant cell (IC50, nM) D/C
Experimental: as §1, §2, §3, §4

Chain of Ba/F3 EGFR Del19/C797S mutants (P00533 with tags, fused parts or gaps DEL746-750/C797S, form open): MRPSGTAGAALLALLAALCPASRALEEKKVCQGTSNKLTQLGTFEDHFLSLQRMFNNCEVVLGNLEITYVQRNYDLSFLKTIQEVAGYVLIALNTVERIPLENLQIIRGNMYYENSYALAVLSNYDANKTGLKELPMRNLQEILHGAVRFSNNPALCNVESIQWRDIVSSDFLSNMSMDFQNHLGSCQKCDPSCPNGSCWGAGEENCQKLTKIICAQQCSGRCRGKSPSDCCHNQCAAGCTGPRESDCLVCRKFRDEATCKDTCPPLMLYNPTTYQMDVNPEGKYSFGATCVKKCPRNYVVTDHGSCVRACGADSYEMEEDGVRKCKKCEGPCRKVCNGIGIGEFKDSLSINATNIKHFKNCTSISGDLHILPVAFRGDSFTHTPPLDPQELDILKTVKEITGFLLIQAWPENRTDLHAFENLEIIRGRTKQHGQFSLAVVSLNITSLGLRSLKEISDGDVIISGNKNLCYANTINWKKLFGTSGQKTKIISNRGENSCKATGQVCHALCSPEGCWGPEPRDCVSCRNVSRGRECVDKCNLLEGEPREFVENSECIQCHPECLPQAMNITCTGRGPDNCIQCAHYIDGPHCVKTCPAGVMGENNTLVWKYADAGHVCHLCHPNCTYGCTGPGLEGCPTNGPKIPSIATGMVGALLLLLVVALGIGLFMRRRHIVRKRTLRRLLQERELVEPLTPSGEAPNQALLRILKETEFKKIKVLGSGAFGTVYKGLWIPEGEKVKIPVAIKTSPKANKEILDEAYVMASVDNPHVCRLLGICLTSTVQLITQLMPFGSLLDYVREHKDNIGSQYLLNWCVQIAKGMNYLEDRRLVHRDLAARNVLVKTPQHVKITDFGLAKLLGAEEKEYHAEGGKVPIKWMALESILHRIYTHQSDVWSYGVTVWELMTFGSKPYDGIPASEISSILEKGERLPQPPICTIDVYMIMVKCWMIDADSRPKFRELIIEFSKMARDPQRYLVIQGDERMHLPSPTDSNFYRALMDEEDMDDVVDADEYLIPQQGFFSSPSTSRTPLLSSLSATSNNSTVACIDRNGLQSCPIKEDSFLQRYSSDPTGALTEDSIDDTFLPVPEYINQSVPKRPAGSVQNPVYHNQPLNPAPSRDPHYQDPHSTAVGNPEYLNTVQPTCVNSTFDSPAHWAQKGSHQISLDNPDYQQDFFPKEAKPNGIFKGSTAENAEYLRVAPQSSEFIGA
Chain of Ba/F3 EGFR L858R/T790M/C797S mutants (P00533 whole entry T790M/C797S/L858R): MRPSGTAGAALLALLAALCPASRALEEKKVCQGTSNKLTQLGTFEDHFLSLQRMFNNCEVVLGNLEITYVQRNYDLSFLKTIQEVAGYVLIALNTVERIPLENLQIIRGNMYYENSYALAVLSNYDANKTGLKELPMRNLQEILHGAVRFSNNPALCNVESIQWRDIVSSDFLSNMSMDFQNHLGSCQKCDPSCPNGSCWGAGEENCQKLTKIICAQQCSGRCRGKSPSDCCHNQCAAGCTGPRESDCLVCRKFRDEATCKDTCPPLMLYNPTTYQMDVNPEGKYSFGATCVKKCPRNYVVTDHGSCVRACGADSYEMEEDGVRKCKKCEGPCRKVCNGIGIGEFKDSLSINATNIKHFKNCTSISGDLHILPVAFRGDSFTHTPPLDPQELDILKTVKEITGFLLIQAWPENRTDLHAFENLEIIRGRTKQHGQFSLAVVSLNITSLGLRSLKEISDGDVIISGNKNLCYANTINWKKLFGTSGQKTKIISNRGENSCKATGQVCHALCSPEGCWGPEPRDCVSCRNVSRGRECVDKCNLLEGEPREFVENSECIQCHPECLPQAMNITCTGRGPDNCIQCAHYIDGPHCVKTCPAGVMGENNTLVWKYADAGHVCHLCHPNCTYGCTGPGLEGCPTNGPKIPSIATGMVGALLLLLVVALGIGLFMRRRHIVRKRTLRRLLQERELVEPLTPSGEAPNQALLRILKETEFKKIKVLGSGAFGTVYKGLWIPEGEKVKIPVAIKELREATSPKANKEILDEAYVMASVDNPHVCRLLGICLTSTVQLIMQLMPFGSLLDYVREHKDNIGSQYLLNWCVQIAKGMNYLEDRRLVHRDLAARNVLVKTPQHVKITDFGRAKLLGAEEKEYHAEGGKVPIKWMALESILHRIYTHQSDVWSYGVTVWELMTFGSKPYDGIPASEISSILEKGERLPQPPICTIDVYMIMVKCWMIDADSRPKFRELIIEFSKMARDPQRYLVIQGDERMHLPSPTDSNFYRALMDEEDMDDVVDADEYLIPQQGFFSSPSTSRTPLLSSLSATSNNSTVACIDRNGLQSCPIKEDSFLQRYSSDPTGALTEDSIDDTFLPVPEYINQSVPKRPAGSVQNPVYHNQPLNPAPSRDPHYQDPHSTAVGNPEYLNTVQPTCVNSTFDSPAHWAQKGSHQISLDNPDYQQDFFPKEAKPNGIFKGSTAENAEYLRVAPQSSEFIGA
Chain of Ba/F3 EGFR Del19/T790M/C797S mutants (P00533 with tags, fused parts or gaps DEL746-750/T790M/C797S, form open): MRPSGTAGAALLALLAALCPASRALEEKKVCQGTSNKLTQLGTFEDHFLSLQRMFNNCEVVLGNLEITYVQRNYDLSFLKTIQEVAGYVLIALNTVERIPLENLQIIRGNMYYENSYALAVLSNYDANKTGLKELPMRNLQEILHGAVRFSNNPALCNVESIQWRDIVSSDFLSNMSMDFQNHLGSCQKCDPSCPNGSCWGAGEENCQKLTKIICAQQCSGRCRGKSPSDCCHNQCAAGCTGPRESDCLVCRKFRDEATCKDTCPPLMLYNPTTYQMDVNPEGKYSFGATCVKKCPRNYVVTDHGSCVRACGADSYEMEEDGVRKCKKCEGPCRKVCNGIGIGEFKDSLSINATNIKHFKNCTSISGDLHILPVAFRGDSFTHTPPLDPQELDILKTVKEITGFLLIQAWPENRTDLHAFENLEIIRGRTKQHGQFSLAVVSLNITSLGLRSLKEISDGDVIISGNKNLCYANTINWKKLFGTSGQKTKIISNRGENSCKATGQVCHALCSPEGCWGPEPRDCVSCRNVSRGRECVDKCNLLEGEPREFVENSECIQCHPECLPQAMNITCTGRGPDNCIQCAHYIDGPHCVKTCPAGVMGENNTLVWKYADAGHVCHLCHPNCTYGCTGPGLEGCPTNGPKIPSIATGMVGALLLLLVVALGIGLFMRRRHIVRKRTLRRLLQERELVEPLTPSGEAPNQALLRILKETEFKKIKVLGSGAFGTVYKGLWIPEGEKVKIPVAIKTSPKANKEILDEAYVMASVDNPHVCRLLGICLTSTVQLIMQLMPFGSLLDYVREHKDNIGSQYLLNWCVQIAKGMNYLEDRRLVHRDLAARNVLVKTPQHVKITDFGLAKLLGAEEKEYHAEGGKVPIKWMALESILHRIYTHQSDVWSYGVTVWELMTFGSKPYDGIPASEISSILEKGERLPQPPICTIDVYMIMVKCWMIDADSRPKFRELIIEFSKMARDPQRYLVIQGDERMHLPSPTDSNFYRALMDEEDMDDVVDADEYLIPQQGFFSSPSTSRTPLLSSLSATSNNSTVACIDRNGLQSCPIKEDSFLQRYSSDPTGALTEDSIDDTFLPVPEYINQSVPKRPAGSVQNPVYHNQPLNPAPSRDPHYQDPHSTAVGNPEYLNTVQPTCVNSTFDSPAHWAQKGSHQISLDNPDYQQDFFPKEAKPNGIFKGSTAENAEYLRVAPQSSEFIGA
Chain of Ba/F3 EGFR L858R/C797S mutants (P00533 whole entry C797S/L858R): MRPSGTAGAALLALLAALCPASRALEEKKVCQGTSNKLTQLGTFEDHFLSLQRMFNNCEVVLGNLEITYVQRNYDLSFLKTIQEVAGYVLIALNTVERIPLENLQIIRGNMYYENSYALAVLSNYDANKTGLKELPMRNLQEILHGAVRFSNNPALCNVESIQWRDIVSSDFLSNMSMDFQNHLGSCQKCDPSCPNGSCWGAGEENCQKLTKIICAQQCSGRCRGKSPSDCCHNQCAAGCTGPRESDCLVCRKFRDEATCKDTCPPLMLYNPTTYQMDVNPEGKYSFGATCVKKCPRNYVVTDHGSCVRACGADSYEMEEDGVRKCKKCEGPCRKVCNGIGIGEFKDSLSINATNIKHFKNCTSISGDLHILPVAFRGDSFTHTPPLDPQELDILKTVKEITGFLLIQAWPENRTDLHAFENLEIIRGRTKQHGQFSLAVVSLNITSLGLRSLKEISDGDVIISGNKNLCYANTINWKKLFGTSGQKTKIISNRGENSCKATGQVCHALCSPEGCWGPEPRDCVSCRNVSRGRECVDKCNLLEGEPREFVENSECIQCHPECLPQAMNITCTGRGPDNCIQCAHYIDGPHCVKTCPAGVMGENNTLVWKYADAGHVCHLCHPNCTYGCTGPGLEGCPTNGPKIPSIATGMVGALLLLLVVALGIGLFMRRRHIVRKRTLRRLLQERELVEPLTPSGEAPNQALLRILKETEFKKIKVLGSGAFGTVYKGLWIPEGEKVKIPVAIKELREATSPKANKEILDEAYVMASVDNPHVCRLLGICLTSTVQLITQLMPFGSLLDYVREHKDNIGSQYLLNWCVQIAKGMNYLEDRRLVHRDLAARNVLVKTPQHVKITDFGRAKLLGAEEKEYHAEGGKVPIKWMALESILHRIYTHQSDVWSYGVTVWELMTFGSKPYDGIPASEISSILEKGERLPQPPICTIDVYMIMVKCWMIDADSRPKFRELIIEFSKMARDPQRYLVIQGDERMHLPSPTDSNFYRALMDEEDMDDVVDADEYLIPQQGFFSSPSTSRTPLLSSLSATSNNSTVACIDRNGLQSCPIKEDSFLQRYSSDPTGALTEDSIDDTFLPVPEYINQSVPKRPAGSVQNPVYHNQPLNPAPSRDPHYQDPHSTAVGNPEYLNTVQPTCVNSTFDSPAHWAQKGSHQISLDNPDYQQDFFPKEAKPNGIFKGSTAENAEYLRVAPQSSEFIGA

Structure (SMILES) | GI50 [1] | GI50 [2] | GI50 (Ba/F3 EGFR Wild-type) | GI50 [3] | GI50 [4]
COc1cc(N2CCC(N3CCN(C)CC3)CC2)ccc1Nc1ncc(Cl)c(Nc2ccc3nccnc3c2NS(C)(=O)=O)n1 [Example A3, N-(6-((5-chloro-2-((2-methoxy-4-(4-(4-methylpiperazin-1-yl)piperidin-1-yl)phenyl)amino)pyrimidin-4-yl)amino)quinoxalin-5-yl)methanesulfonamide] | 97.6 nM | 48 nM |  |  | 
COc1cc(N2CCC(N3CCN(C)CC3)CC2)c(C2CC2)cc1Nc1ncc(Cl)c(Nc2ccc3nccnc3c2NS(C)(=O)=O)n1 [Example A5, N-(6-((5-chloro-2-((5-cyclopropyl-2-methoxy-4-(4-(4-methylpiperazin-1-yl)piperidin-1-yl)phenyl)amino)pyrimidin-4-yl)amino)quinoxalin-5-yl)methanesulfonamide] | 69 nM | 23 nM | 938 nM | 244 nM | 76 nM
COc1cc(N2CCC(N3CCN(C)CC3)CC2)c(C(F)(F)F)cc1Nc1ncc(Cl)c(Nc2ccc3nccnc3c2NS(C)(=O)=O)n1 [Example A7, N-(6-((5-chloro-2-((2-methoxy-4-(4-(4-methylpiperazin-1-yl)piperidin-1-yl)-5-(trifluoromethyl)phenyl)amino)pyrimidin-4-yl)amino)quinoxalin-5-yl)methanesulfonamide] | 169 nM | 36 nM | 602 nM | 246 nM | 96 nM
CCc1cc(Nc2ncc(Br)c(Nc3ccc4nccnc4c3NS(C)(=O)=O)n2)c(OC)cc1N1CCC(N2CCN(C)CC2)CC1 [Example A8, N-(6-((5-bromo-2-((5-ethyl-2-methoxy-4-(4-(4-methylpiperazin-1-yl)piperidin-1-yl)phenyl)amino)pyrimidin-4-yl)amino)quinoxalin-5-yl)methanesulfonamide] | 18 nM | 6 nM | 919 nM | 147 nM | 38 nM
CCc1cc(Nc2ncc(F)c(Nc3ccc4nccnc4c3NS(C)(=O)=O)n2)c(OC)cc1N1CCC(N2CCN(C)CC2)CC1 [Example A9, N-(6-((2-((5-ethyl-2-methoxy-4-(4-(4-methylpiperazin-1-yl)piperidin-1-yl)phenyl)amino)-5-fluoropyrimidin-4-yl)amino)quinoxalin-5-yl)methanesulfonamide] | 80 nM | 62 nM | 524 nM | 106 nM | 15 nM
CNc1cc(N2CCC(N3CCN(C)CC3)CC2)c(C)cc1Nc1ncc(Cl)c(Nc2ccc3nccnc3c2NS(C)(=O)=O)n1 [Example A13, N-(6-((5-chloro-2-((5-methyl-2-(methylamino)-4-(4-(4-methylpiperazin-1-yl)piperidin-1-yl)phenyl)amino)pyrimidin-4-yl)amino)quinoxalin-5-yl)methanesulfonamide] | 338 nM | 109 nM | > 2000 nM | 646 nM | 265 nM
COc1cc(N2CCC(N3CCN(C)CC3)CC2)c(C)cc1Nc1ncc(C(F)(F)F)c(Nc2ccc3nccnc3c2NS(C)(=O)=O)n1 [Example A20, N-(6-((2-((2-methoxy-5-methyl-4-(4-(4-methylpiperazin-1-yl)piperidin-1-yl)phenyl)amino)-5-(trifluoromethyl)pyrimidin-4-yl)amino)quinoxalin-5-yl)methane sulfonamide] | > 2000 nM | 1590 nM | > 2000 nM | > 2000 nM | > 2000 nM
COc1cc(N2CCC(N3CCN(C)CC3)CC2)c(C)cc1Nc1ncc(F)c(Nc2ccc3nccnc3c2NS(C)(=O)=O)n1 [Example A22, N-(6-((5-fluoro-2-((2-methoxy-5-methyl-4-(4-(4-methylpiperazin-1-yl)piperidin-1-yl)phenyl)amino)pyrimidin-4-yl)amino)quinoxalin-5-yl)methanesulfonamide] | 369 nM | 189 nM | 521 nM | 189 nM | 73 nM
COc1cc(N2CCC(N3CCN(C)CC3)CC2)c(C)cc1Nc1ncc(Cl)c(Nc2ccc3nccnc3c2NS(=O)(=O)C2CC2)n1 [Example A26, N-(6-((5-chloro-2-((2-methoxy-5-methyl-4-(4-(4-methylpiperazin-1-yl)piperidin-1-yl)phenyl)amino)pyrimidin-4-yl)amino)quinoxalin-5-yl)cyclopropanesulfonamide] | 107 nM | 79 nM | 1280 nM | 163 nM | 72 nM
CCc1cc(Nc2ncc(Br)c(Nc3ccc4nccnc4c3NS(C)(=O)=O)n2)c(OC)cc1N1CCC(N(C)C)CC1 [Example B2, N-(6-((5-bromo-2-((4-(4-(dimethylamino)piperidin-1-yl)-5-ethyl-2-methoxyphenyl)amino)pyrimidin-4-yl)amino)quinoxalin-5-yl)methanesulfonamide] | 13 nM | 7 nM | 2100 nM | 195 nM | 28 nM
COc1cc(N2CCC(N(C)C)CC2)ccc1Nc1ncc(Br)c(Nc2ccc3nccnc3c2NS(C)(=O)=O)n1 [Example B3, N-(6-((5-bromo-2-((4-(4-(dimethylamino)piperidin-1-yl)-2-methoxyphenyl)amino)pyrimidin-4-yl)amino)quinoxalin-5-yl)methanesulfonamide] | 86 nM | 30 nM | 725 nM | 325 nM | 147 nM
COc1cc(N2CCC(N(C)C)CC2)c(C)cc1Nc1ncc(Cl)c(Nc2ccc3nccnc3c2NS(C)(=O)=O)n1 [Example B4, N-(6-((5-chloro-2-((4-(4-(dimethylamino)piperidin-1-yl)-2-methoxy-5-methylphenyl)amino)pyrimidin-4-yl)amino)quinoxalin-5-yl)methanesulfonamide] | 9 nM | 4 nM | 10 nM | 14 nM | 9 nM
CCc1cc(Nc2ncc(Cl)c(Nc3ccc4nccnc4c3NS(C)(=O)=O)n2)c(OC)cc1N1CCC(N(C)C)CC1 [Example B5, N-(6-((5-chloro-2-((4-(4-(dimethylamino)piperidin-1-yl)-5-ethyl-2-methoxyphenyl)amino)pyrimidin-4-yl)amino)quinoxalin-5-yl)methanesulfonamide] | 36 nM | 14 nM | 1860 nM | 223 nM | 30 nM
COc1cc(N2CCC(N(C)C)CC2)c(C)cc1Nc1ncc(C(F)(F)F)c(Nc2ccc3nccnc3c2NS(C)(=O)=O)n1 [Example B9, N-(6-((2-((4-(4-(dimethylamino)piperidin-1-yl)-2-methoxy-5-methylphenyl)amino)-5-(trifluoromethyl)pyrimidin-4-yl)amino)quinoxalin-5-yl) methane sulfonamide] | > 2000 nM | > 2000 nM | > 2000 nM | > 2000 nM | > 2000 nM
COc1cc(N2CCOCC2)c(C)cc1Nc1ncc(Br)c(Nc2ccc3nccnc3c2NS(C)(=O)=O)n1 [Example B10, N-(6-((5-bromo-2-((2-methoxy-5-methyl-4-morpholinophenyl)amino)pyrimidin-4-yl)amino)quinoxalin-5-yl)methanesulfonamide] | 584 nM | 252 nM | 858 nM | 678 nM | 537 nM
COc1cc(C2CCNCC2)ccc1Nc1ncc(F)c(Nc2ccc3nccnc3c2NS(C)(=O)=O)n1 [Example B17, N-(6-((5-fluoro-2-((2-methoxy-4-(piperidin-4-yl)phenyl)amino)pyrimidin-4-yl)amino)quinoxalin-5-yl)methanesulfonamide] | > 2000 nM | > 2000 nM | > 2000 nM | > 2000 nM | 1250 nM
CC(C)Oc1cc(C2CCNCC2)ccc1Nc1ncc(Cl)c(Nc2ccc3nccnc3c2NS(C)(=O)=O)n1 [Example B22, N-(6-((5-chloro-2-((2-isopropoxy-4-(piperidin-4-yl)phenyl)amino)pyrimidin-4-yl)amino)103quinoxaline-5-yl)methanesulfonamide] | > 2000 nM | > 2000 nM | > 2000 nM | > 2000 nM | 
